Assay results taken from patent US20230113037A1 (Bayer Aktiengesellschaft, priority 2019, published 2023).
Like-named read-outs stand apart in the source and are kept apart here.

How the values were obtained:
AHR [1] = target: T1, AHR (Homo sapiens, UniProt P35869); assay: In vitro assay 1: antagonism in human cell line (AHR transactivation, firefly luciferase reporter, kynurenic acid prestimulated); format: cell-based; settings: AHR Antagonism Human IC50 [M]
T1 construct: U87 MG glioblastoma cells (ATCC #HTB-14) endogenously expressing AHR; endogenous in cells; host or cells: U87 MG glioblastoma cells (ATCC #HTB-14)
T1 sequence (P35869 11-848): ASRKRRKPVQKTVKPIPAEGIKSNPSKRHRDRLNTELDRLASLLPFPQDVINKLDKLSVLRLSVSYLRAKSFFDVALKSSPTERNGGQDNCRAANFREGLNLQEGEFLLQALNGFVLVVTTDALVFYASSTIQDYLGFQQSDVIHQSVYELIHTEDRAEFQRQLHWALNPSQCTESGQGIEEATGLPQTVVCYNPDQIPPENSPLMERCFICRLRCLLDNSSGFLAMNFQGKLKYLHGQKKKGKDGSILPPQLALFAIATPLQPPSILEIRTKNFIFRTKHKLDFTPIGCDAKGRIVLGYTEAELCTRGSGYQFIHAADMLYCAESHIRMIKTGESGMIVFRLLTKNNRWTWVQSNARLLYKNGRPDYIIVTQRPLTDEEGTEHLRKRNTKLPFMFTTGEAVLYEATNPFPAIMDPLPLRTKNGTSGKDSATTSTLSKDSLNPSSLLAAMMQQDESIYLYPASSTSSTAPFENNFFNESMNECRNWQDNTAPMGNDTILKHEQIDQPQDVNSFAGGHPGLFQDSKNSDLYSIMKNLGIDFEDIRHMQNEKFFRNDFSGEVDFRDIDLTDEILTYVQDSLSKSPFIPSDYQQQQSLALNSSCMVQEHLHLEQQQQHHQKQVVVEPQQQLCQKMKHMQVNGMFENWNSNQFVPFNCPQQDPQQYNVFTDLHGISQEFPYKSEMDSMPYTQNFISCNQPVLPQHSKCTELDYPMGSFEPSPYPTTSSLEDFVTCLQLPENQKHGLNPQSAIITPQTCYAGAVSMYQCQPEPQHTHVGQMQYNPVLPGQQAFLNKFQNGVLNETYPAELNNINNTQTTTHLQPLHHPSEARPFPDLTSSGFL
How it was run: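 Antagonism is measured against kynurenic acid prestimulation in U87 MG glioblastoma cells carrying stable DRE-luciferase and Renilla reporters. Positive inhibition control: 150 μM kynurenic acid with 5 μM staurosporine. Values are normalized to controls; repeats are averaged or given as medians.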

AHR [2] = target: T2, AHR (Mus musculus, UniProt P30561); assay: In vitro assay 3: antagonism in mouse cell line (AHR transactivation, firefly luciferase reporter, kynurenic acid prestimulated); format: cell-based
T2 sequence (P30561 1-848 P471L/N533S/M589L): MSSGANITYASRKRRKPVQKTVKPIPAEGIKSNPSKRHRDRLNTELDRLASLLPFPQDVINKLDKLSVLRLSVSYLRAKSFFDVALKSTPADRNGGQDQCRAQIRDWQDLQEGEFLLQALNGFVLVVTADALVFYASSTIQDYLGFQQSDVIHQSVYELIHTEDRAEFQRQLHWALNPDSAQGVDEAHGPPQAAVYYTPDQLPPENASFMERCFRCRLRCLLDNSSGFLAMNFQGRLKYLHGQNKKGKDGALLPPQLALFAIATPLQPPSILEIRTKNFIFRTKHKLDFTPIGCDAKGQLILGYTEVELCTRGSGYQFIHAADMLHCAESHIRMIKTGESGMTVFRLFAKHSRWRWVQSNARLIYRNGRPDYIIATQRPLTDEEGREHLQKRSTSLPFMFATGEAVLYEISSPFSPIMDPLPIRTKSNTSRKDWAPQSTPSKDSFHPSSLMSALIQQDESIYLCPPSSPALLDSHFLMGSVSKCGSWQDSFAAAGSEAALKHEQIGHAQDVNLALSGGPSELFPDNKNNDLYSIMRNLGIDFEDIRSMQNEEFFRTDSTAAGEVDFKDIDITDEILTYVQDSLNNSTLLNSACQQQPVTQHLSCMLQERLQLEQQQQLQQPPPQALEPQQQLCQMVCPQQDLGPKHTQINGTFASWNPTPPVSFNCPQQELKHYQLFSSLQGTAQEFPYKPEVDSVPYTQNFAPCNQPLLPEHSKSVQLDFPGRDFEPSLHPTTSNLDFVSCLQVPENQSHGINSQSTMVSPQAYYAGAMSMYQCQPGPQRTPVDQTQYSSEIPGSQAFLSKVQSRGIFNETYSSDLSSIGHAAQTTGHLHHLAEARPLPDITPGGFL
How it was run: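 Luminescence from an AHR-dependent DRE-luciferase reporter, stably integrated in mouse cells, quantifies blockade of kynurenic acid-driven activation. Unstimulated cells mark maximal inhibition; normalization uses both control types, and multiply tested compounds carry mean or median values.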

[3] = mouse Hepa 1c1c7 cells, 200 μM kynurenic acid, 20 hours, read-out: AHR Antagonism Mouse IC50

SMILES	IC50 (AHR [1]) [M]	IC50 (AHR [2]; [3]) [nM]	IC50 (AHR [2]; read-out: AHR Antagonism Mouse IC50, mouse Hepa 1c1c7 cells, 200 μM kynurenic acid, 20 hours) [nM]
Cc1cc(-c2nc3c4ccccc4nc(N[C@@H]4CCNC4=O)n3n2)cs1 [Example 356, (3R)-3-{[2-(5-methylthiophen-3-yl)[1,2,4]triazolo[1,5-c]quinazolin-5-yl]amino}pyrrolidin-2-one]	2.71e-08	30.4	–
CC[C@@H](Nc1nc2ccccc2c2nc(-c3csc(C)c3)nn12)C(N)=O [Example 358]	3.15e-09	1.78	–
O=C1NCC[C@H]1Nc1nc2ccccc2c2nc(-c3cc(C(F)(F)F)cc(C(F)(F)F)c3)nn12 [Example 360, (3R)-3-({2-[3,5-bis(trifluoromethyl)phenyl][1,2,4]triazolo[1,5-c]quinazolin-5-yl}amino)pyrrolidin-2-one]	> 2e-05	5440	–
O=C1NCCCC[C@H]1Nc1nc2ccccc2c2nc(-c3cc(C(F)(F)F)ccn3)nn12 [Example 363, (3R)-3-({2-[4-(trifluoromethyl)pyridin-2-yl][1,2,4]triazolo[1,5-c]quinazolin-5-yl}amino)azepan-2-one]	3.5e-08	–	10.7
O=C1NCC[C@H]1Nc1nc2ccccc2c2nc(-c3cc(C(F)(F)F)ccn3)nn12 [Example 366, (3R)-3-({2-[4-(trifluoromethyl)pyridin-2-yl][1,2,4]triazolo[1,5-c]quinazolin-5-yl}amino)pyrrolidin-2-one]	> 2e-05	593	–
O=C1NCCCC[C@H]1Nc1nc2ccccc2c2nc(-c3ccncc3F)nn12 [Example 369, (3R)-3-{[2-(3-fluoropyridin-4-yl)[1,2,4]triazolo[1,5-c]quinazolin-5-yl]amino}azepan-2-one]	1.64e-08	9.97	–
O=C1NCCCC[C@H]1Nc1nc2ccccc2c2nc(-c3cccc(C(F)(F)F)n3)nn12 [Example 370, (3R)-3-({2-[6-(trifluoromethyl)pyridin-2-yl][1,2,4]triazolo[1,5-c]quinazolin-5-yl}amino)azepan-2-one]	5.45e-08	6.38	–
CC[C@@H](Nc1nc2ccccc2c2nc(-c3cccc(C(F)(F)F)n3)nn12)C(N)=O [Example 371, (2R)-2-({2-[6-(trifluoromethyl)pyridin-2-yl][1,2,4]triazolo[1,5-c]quinazolin-5-yl}amino)butanamide]	7.24e-08	14.6	–
CC[C@@H](Nc1nc2ccccc2c2nc(-c3ccc(S(C)(=O)=O)cc3)nn12)C(N)=O [Example 376, (2R)-2-({2-[4-(methanesulfonyl)phenyl][1,2,4]triazolo[1,5-c]quinazolin-5-yl}amino)butanamide]	1.61e-08	4.93	–
CCC[C@@H](Nc1nc2ccccc2c2nc(-c3ccc(S(C)(=O)=O)cc3)nn12)C(=O)NC [Example 377, N^2-{2-[4-(methanesulfonyl)phenyl][1,2,4]triazolo[1,5-c]quinazolin-5-yl}-N-methyl-D-norvalinamide]	3.28e-08	12.4	–

Now from value to compound, other results behind:

IC50 (AHR [1]) [M]	IC50 (AHR [2]; [3]) [nM]	SMILES	IC50 (AHR [2]; read-out: AHR Antagonism Mouse IC50, mouse Hepa 1c1c7 cells, 200 μM kynurenic acid, 20 hours) [nM]
1.37e-09	0.125	CC[C@@H](Nc1nc2ccccc2c2nc(-c3ccsc3C)nn12)C(N)=O [Example 351]	–
2.36e-07	27.4	Cc1cc(-c2nc3c4ccccc4nc(N[C@H]4CCCCNC4=O)n3n2)cs1 [Example 353]	–
4.05e-08	78.2	Cc1cc(-c2nc3c4ccccc4nc(N[C@@H]4CCCNC4=O)n3n2)cs1 [Example 354, (3R)-3-{[2-(5-methylthiophen-3-yl)[1,2,4]triazolo[1,5-c]quinazolin-5-yl]amino}piperidin-2-one]	–
3.79e-08	36.6	Cc1cc(-c2nc3c4ccccc4nc(N[C@@H]4CCN(C)C4=O)n3n2)cs1 [Example 355]	–
> 2e-05	93.4	O=C1NCCCC[C@H]1Nc1nc2ccccc2c2nc(-c3cc(C(F)(F)F)cc(C(F)(F)F)c3)nn12 [Example 359, (3R)-3-({2-[3,5-Bis(trifluoromethyl)phenyl][1,2,4]triazolo[1,5-c]quinazolin-5-yl}amino)azepan-2-one]	–
> 2e-05	66.8	CC[C@@H](Nc1nc2ccccc2c2nc(-c3cc(C(F)(F)F)cc(C(F)(F)F)c3)nn12)C(N)=O [Example 361, (2R)-2-({2-[3,5-bis(trifluoromethyl)phenyl][1,2,4]triazolo[1,5-c]quinazolin-5-yl}amino)butanamide]	–
1.91e-08	3.54	O=C1NCCCC[C@H]1Nc1nc2ccccc2c2nc(-c3cncc(C(F)(F)F)c3)nn12 [Example 362, (3R)-3-({2-[5-(trifluoromethyl)pyridin-3-yl][1,2,4]triazolo[1,5-c]quinazolin-5-yl}amino)azepan-2-one]	–
1.91e-07	10.5	CC[C@@H](Nc1nc2ccccc2c2nc(-c3cc(C(F)(F)F)ccn3)nn12)C(N)=O [Example 367, (2R)-2-({2-[4-(trifluoromethyl)pyridin-2-yl][1,2,4]triazolo[1,5-c]quinazolin-5-yl}amino)butanamide]	–
5e-08	24.8	CCC[C@@H](Nc1nc2ccccc2c2nc(-c3cc(C(F)(F)F)ccn3)nn12)C(=O)NC [Example 368, N-methyl-N^2-{2-[4-(trifluoromethyl)pyridin-2-yl][1,2,4]triazolo[1,5-c]quinazolin-5-yl}-D-norvalinamide]	–
8.65e-09	1.73	CS(=O)(=O)c1ccc(-c2nc3c4ccccc4nc(N[C@@H]4CCCCNC4=O)n3n2)cc1 [Example 372, (3R)-3-({2-[4-(methanesulfonyl)phenyl][1,2,4]triazolo[1,5-c]quinazolin-5-yl}amino)azepan-2-one]	–
6.38e-07	514	CS(=O)(=O)c1ccc(-c2nc3c4ccccc4nc(N[C@@H]4CCNC4=O)n3n2)cc1 [Example 373, (3R)-3-({2-[4-(methanesulfonyl)phenyl][1,2,4]triazolo[1,5-c]quinazolin-5-yl}amino)pyrrolidin-2-one]	–
4.49e-07	211	CS(=O)(=O)c1ccc(-c2nc3c4ccccc4nc(N[C@@H]4CCCNC4=O)n3n2)cc1 [Example 374, (3R)-3-({2-[4-(methanesulfonyl)phenyl][1,2,4]triazolo[1,5-c]quinazolin-5-yl}amino)piperidin-2-one]	–
7.95e-07	30.6	CS(=O)(=O)c1ccc(-c2nc3c4ccccc4nc(N[C@H]4CCCCNC4=O)n3n2)cc1 [Example 375, (3S)-3-({2-[4-(methanesulfonyl)phenyl][1,2,4]triazolo[1,5-c]quinazolin-5-yl}amino)azepan-2-one]	–
6.25e-07	171	CC[C@@H](Nc1nc2ccccc2c2nc(-c3cccc(S(C)(=O)=O)c3)nn12)C(N)=O [Example 378, (2R)-2-({2-[3-(methanesulfonyl)phenyl][1,2,4]triazolo[1,5-c]quinazolin-5-yl}amino)butanamide]	–
7.6e-10	0.993	CC[C@@H](Nc1nc2ccccc2c2nc(-c3ccc(OC)cc3)nn12)C(N)=O [Example 379, (2R)-2-{[2-(4-methoxyphenyl)[1,2,4]triazolo[1,5-c]quinazolin-5-yl]amino}butanamide]	–
